Reference: patent EP0908457B1, “3-(1,2-benzisothiazol- and isoxazol-5-Y1)-2,4(1H,3H)-pyrimidinedione or thione and 3-(1,2-benzisothiazol- and isoxazol-5-y1)-4(3H)-pyrimidinone or thione herbicidal agents” (BASF AKTIENGESELLSCHAFT, priority 1997, dated 1999)

Legend:
[1] = tested on: Echinochloa oryzoides (Ard.) Fritsch.; experiment: Preemergence weed control under flooded paddy conditions, ECHORC (Watergrass (Calif.)); format: in vivo; details: preemergence, flooded paddy
Cyperus iria = experiment: Preemergence weed control under flooded paddy conditions, CYPIR (Rice Flatsedge); format: in vivo; details: preemergence, flooded paddy
[2] = tested on: Cyperus serotinus, Rottb.; experiment: Preemergence weed control under flooded paddy conditions, CYPSE (Flatsedge); format: in vivo; details: preemergence
[3] = tested on: Monochoria vaginalis, Presl.; experiment: Preemergence weed control under flooded paddy conditions, MOOVA (Monochoria); format: in vivo; details: preemergence, flooded paddy
Sagittaria pygmaea, L. = experiment: Preemergence weed control under flooded paddy conditions, SAGPY (Arrowhead (Pygmaea)); format: in vivo; details: preemergence, flooded paddy
[4] = tested on: Oryza sativa, (L.) Tebonnet; experiment: Rice tolerance to post-transplant applications under flooded paddy conditions (Example 187), ORYSAT (Rice, Tebonnet)
[5] = Rate 0.0320 kg/ha, rated three to four weeks after treatment
[6] = Rate 0.0620 kg/ha, rated three to four weeks after treatment
[7] = Rate 0.1250 kg/ha, rated three to four weeks after treatment
[8] = Rate 0.2500 kg/ha, rated three to four weeks after treatment
[9] = Rate 0.0320 kg/ha, rated 3-4 weeks after treatment
[10] = Rate 0.0620 kg/ha, rated 3-4 weeks after treatment
[11] = Rate 0.1250 kg/ha, rated 3-4 weeks after treatment
[12] = Rate 0.2500 kg/ha, rated 3-4 weeks after treatment
Further: meaning of each grade not given here.

Cn1c(C(F)(F)F)cc(=O)n(-c2ccc3snc(COCc4ccc([N+](=O)[O-])cc4)c3c2)c1=O [Example 589, 2,4(1H,3H)-Pyrimidinedione, 1-methyl-3-{3-{[(p-nitrobenzyl)oxy]methyl}-1,2-benzisothiazol-5-yl}-6-(trifluoromethyl)-]
herbicidal effect rating, ECHORC [1, 5]: 4.0
herbicidal effect rating, ECHORC [1, 6]: 4.0
herbicidal effect rating, ECHORC [1, 7]: 4.0
herbicidal effect rating, ECHORC [1, 8]: 4.0
herbicidal effect rating, CYPIR (Cyperus iria; [5]): 0.0
herbicidal effect rating, CYPIR (Cyperus iria; [6]): 2.0
herbicidal effect rating, CYPIR (Cyperus iria; [7]): 3.0
herbicidal effect rating, CYPIR (Cyperus iria; [8]): 4.0
herbicidal effect rating, CYPSE [2, 5]: 0.0
herbicidal effect rating, CYPSE [2, 6]: 0.0
herbicidal effect rating, CYPSE [2, 7]: 0.0
herbicidal effect rating, MOOVA [3, 5]: 7.0
herbicidal effect rating, MOOVA [3, 6]: 8.0
herbicidal effect rating, MOOVA [3, 7]: 8.0
herbicidal effect rating, MOOVA [3, 8]: 9.0
herbicidal effect rating, SAGPY (Sagittaria pygmaea, L.; [5]): 0.0
herbicidal effect rating, SAGPY (Sagittaria pygmaea, L.; [6]): 2.0
herbicidal effect rating, SAGPY (Sagittaria pygmaea, L.; [7]): 2.0
herbicidal effect rating, SAGPY (Sagittaria pygmaea, L.; [8]): 3.0
herbicidal effect rating ORYSAT [4, 5]: 0.0
herbicidal effect rating ORYSAT [4, 6]: 0.0
herbicidal effect rating ORYSAT [4, 7]: 0.0
herbicidal effect rating ORYSAT [4, 8]: 0.0

C#CC(C)OC(=O)C(C)(C)Oc1ccc(C)cc1-c1nsc2ccc(-n3c(=O)cc(C(F)(F)F)n(C)c3=O)cc12 (centres unmarked) [Example 531, Propionic acid, 2-{{2-{5-[3,6-dihydro-3-methyl-2,6-dioxo-4-(trifluoromethyl)-1(2H)-pyrimidinyl]-1,2-benzisothiazol-3-yl}-p-tolyl}oxy}-2-methyl-, 1-methyl-2-propynyl ester]
herbicidal effect rating, ECHORC [1, 9]: 9.0
herbicidal effect rating, ECHORC [1, 10]: 9.0
herbicidal effect rating, ECHORC [1, 11]: 9.0
herbicidal effect rating, ECHORC [1, 12]: 9.0
herbicidal effect rating, CYPIR (Cyperus iria; [9]): 0.0
herbicidal effect rating, CYPIR (Cyperus iria; [10]): 0.0
herbicidal effect rating, CYPIR (Cyperus iria; [11]): 4.0
herbicidal effect rating, CYPIR (Cyperus iria; [12]): 4.0
herbicidal effect rating, CYPSE [2, 9]: 0.0
herbicidal effect rating, CYPSE [2, 10]: 0.0
herbicidal effect rating, CYPSE [2, 11]: 3.0
herbicidal effect rating, CYPSE [2, 12]: 3.0
herbicidal effect rating, MOOVA [3, 9]: 9.0
herbicidal effect rating, MOOVA [3, 10]: 9.0
herbicidal effect rating, MOOVA [3, 11]: 9.0
herbicidal effect rating, MOOVA [3, 12]: 9.0
herbicidal effect rating, SAGPY (Sagittaria pygmaea, L.; [9]): 0.0
herbicidal effect rating, SAGPY (Sagittaria pygmaea, L.; [10]): 0.0
herbicidal effect rating, SAGPY (Sagittaria pygmaea, L.; [11]): 3.0
herbicidal effect rating, SAGPY (Sagittaria pygmaea, L.; [12]): 3.0
herbicidal effect rating ORYSAT [4, 9]: 0.0
herbicidal effect rating ORYSAT [4, 10]: 0.0
herbicidal effect rating ORYSAT [4, 11]: 3.0
herbicidal effect rating ORYSAT [4, 12]: 9.0

CCS(=O)(=O)NC(=O)c1nsc2ccc(-n3c(=O)cc(C(F)(F)F)n(C)c3=O)cc12 [Example 383, 1,2-Benzisothiazole-3-carboxamide, 5-[3,6-dihydro-3-methyl-2,6-dioxo-4-(trifluoromethyl)-1(2H)-pyrimidinyl]-N-(ethylsulfonyl)-]
herbicidal effect rating, ECHORC [1, 5]: 4.0
herbicidal effect rating, ECHORC [1, 6]: 6.5
herbicidal effect rating, ECHORC [1, 7]: 7.5
herbicidal effect rating, ECHORC [1, 8]: 8.0
herbicidal effect rating, CYPIR (Cyperus iria; [5]): 2.5
herbicidal effect rating, CYPIR (Cyperus iria; [6]): 7.0
herbicidal effect rating, CYPIR (Cyperus iria; [7]): 7.0
herbicidal effect rating, CYPIR (Cyperus iria; [8]): 8.0
herbicidal effect rating, CYPSE [2, 5]: 4.5
herbicidal effect rating, CYPSE [2, 6]: 5.5
herbicidal effect rating, CYPSE [2, 7]: 7.5
herbicidal effect rating, CYPSE [2, 8]: 9.0
herbicidal effect rating, MOOVA [3, 5]: 9.0
herbicidal effect rating, MOOVA [3, 6]: 9.0
herbicidal effect rating, MOOVA [3, 7]: 9.0
herbicidal effect rating, MOOVA [3, 8]: 9.0
herbicidal effect rating, SAGPY (Sagittaria pygmaea, L.; [5]): 3.0
herbicidal effect rating, SAGPY (Sagittaria pygmaea, L.; [6]): 7.5
herbicidal effect rating, SAGPY (Sagittaria pygmaea, L.; [7]): 9.0
herbicidal effect rating, SAGPY (Sagittaria pygmaea, L.; [8]): 9.0
herbicidal effect rating ORYSAT [4, 5]: 3.5
herbicidal effect rating ORYSAT [4, 6]: 4.5
herbicidal effect rating ORYSAT [4, 7]: 6.0
herbicidal effect rating ORYSAT [4, 8]: 6.5
